Assays:
[1] = Biodistribution in colon after single oral dose; assay type: in vivo; settings: PO 90.0 mg/kg, male Swiss albino mice
Protocol: The biodistribution of DFL23806 in the proximal and distal colon was evaluated in male Swiss albino mice following single dose oral administration of DFL23806 90 mg/kg.
Colon concentration (ng/g) of DFL23806 after PO (90.0 mg/kg) dose administration to male Swiss albino mice.
Colon/Plasma ratio of DFL23806 after PO (90.0 mg/kg) dose administration to male Swiss albino mice.

human GPR120 = biological target: T1, human GPR120 (Homo sapiens, UniProt Q5NUL3); assay: Internalization of GPR120 (Enzyme Fragment Complementation, DiscoverX); assay type: cell-based; settings: at 100 μM
T1 sequence (Q5NUL3 1-361): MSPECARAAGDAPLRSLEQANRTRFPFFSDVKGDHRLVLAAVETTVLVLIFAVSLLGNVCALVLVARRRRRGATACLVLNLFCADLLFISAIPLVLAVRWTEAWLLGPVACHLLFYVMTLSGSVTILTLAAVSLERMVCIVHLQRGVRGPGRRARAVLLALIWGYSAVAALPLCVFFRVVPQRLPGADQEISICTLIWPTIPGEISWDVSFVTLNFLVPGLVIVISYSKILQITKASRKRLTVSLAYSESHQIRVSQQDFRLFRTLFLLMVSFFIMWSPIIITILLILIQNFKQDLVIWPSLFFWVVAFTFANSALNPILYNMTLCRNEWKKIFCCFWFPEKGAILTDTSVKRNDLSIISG

DSS-induced colitis = assay: Mouse model of Dextran Sodium Sulfate-induced colitis; assay type: in vivo, female C57/B16 mice
Source text: A mouse model of colitis induced by administration of Dextran Sodium Sulfate (DSS) (Wirtz S. et al. Nature Protocols; Volume: 2, Issue: 3 Pages: 541-546; 2007) was used to study the therapeutic effect of oral administration of DFL23806 on colitis.
In details, 8- to 12-week-old female C57/B16 mice were subjected to 3 oral cycles of 2.5% Dextran Sodium Sulfate (DSS) in drinking water (molecular mass, 40 kDa; MP Biomedicals), each cycle characterized by 7 days of DSS administration followed by 7 days of filter-purified water.
From day 3 of DSS administration, the mice were divided in 4 experimental groups, each receiving the treatment specified below: • Group 1: DSS (n=8)
No treatment, used as negative control. • Group 2: DSS+Vehicle (n=8)
Treated with 20% v/v Dimethyl Sulfoxide (DMSO) and 80% v/v Phosphate Buffered Saline (PBS), 0.1 M, pH 8 (Vehicle), used as a negative control. • Group 3: DSS+DFL 90 mg/kg (n=8)
Treated with DFL23806 dissolved in Vehicle, at the dosage of 90 mg/kg once a day. • Group 4: DSS+5-ASA 60 mg/kg (n=8)
Treated with 5-aminosalicylic acid (5-ASA) in Vehicle, at the dosage of 60 mg/Kg once a day, used as reference positive control.
Vehicle, DFL23806 and 5-ASA were administered daily, in the morning, by oral gavage, using plastic sterile feeding tubes 20 ga×30 mm. All mice were sacrificed on day 39.
A DAI score was established based on a scale that considers different parameters characterizing experimental colitis induction and progression (R S Walmsley et al. Gut 1998; 43:29-32).
Body weight, presence of gross blood in the feces, and stool consistency were recorded every 2 days. In details, the DAI was determined at each time point by scoring changes in weight loss (0=none, 1=1%-5%, 2=5%-10%, 3=10%-20%, 4=>20%); stool consistency (0=normal, 2=loose, 4=diarrhea); and rectal bleeding (0=normal, 2=occult bleeding, 4=gross bleeding).
Mice were sacrificed at day 39, colon were collected and colon lengths measured for each mouse, as additional parameter of intestinal inflammation.
The day of sacrifice (day 39), mice were anesthetized with 2% isoflurane and subjected to endoscopy, to confirm the inflammatory grade. The experimental endoscopy setup, denoted “Coloview system”, consisted of a miniature endoscope (scope 1.9 mm outer diameter), a xenon light source, a triple chip camera, and an air pump (all from Karl Storz, Tuttlingen, Germany) to achieve regulated inflation of the mouse colon. The endoscopic procedure was viewed on a colour monitor and a modified murine endoscopic index score of colitis severity was assigned on the basis of colon translucency (0-3 points), granular features of the mucosa (0-3 points), morphology of the vascular pattern (0-4 points), and the presence of fibrin (0-4 points), as previously described by Dr. D'Alessio (D'Alessio, S. et al. J. Clin. Invest. 124, 3863-3878; 2014) leading to a cumulative score between 0 (no signs of inflammation) and […] (endoscopic signs of very severe inflammation).
Histological analysis has been performed by an expert pathologist, in a blinded fashion, to grade the intestinal inflammation. More in details, colons of colitic mice in the various experimental groups have been evaluated for histological analyses using […] paraffin-embedded sections, stained with hematoxylin (Dako) and eosin (Diapath). A blinded pathologist evaluated the degree of inflammatory cell infiltration and mucosal damage, using the RACHMILEWITZ score (Table 1) (Rachmilewitz, D. et al. Gastroenterology 122, 1428-1441; 2002).

[2] = DFL23806 90 mg/kg oral once a day, versus DSS and DSS+Vehicle groups, already at day 7
[3] = colon, day 39, DFL 90 mg/kg, 5-ASA 60 mg/kg, compared with DSS+Vehicle
[4] = day 39, DFL23806 90 mg/kg, 5-ASA 60 mg/kg oral once a day, compared to DSS and DSS+Vehicle

Colon/Plasma ratio, Mean ([1]; 4.00 h, 90 mg/kg): 64.20
Kp at 1 h ([1]; mouse, colon/plasma, 1.00 h, read-out: Colon/Plasma ratio, Mean): 1.63
Kp at 4 h ([1]; mouse, colon/plasma, 4.00 h, read-out: Colon/Plasma ratio, Mean): 64.2
concentration at 1 h ([1]; mouse, colon, 1.00 h): 68.3 ng/g
concentration at 4 h ([1]; mouse, colon, 4.00 h): 3570 ng/g
efficacy of internalization of the human GPR120 receptor (human GPR120): 59.1%
SMILES: Cc1cc(F)cc(C)c1NS(=O)(=O)c1cccc(CCCCCCC(=O)O)c1 [DFL23806, 7-(3-(N-(4-fluoro-2,6-dimethylphenyl)sulfamoyl)phenyl)heptanoic acid]
DAI (Disease Activity Index) score (DSS-induced colitis; [2]): significant effect versus the controls
percentage of body weight loss (DSS-induced colitis; [2]): significant effect versus the controls
body weight loss / DAI compared with 5-ASA (DSS-induced colitis; DFL23806 90 mg/kg versus 5-ASA 60 mg/kg, at certain time points): even more effective than 5-ASA
histological score (Rachmilewitz) for extent of flogosis (DSS-induced colitis; [3]): significantly reduced the histological score
histological score (Rachmilewitz) for extent of ulceration (DSS-induced colitis; [3]): significantly reduced the histological score
histological score (Rachmilewitz) for flogosis (DSS-induced colitis; [3]): significantly reduced the histological score
histological score (Rachmilewitz) for ulceration (DSS-induced colitis; [3]): significantly reduced the histological score
composite endoscopic score (DSS-induced colitis; [4]): significantly inhibit chronic experimental colitis
endoscopic score: colon thickness (DSS-induced colitis; [4]): significantly inhibit chronic experimental colitis
endoscopic score: mucosal surface granularity (DSS-induced colitis; [4]): significantly inhibit chronic experimental colitis
endoscopic score: vascular pattern (DSS-induced colitis; [4]): significantly inhibit chronic experimental colitis
endoscopic score: visible fibrin (DSS-induced colitis; [4]): significantly inhibit chronic experimental colitis
colon length (DSS-induced colitis; day 39, DFL23806 90 mg/kg, 5-ASA 60 mg/kg oral once a day, compared to DSS+vehicle): significant inhibitory effect

Source: patent US20250177329A1, “GPR120 AGONISTS FOR THE TREATMENT OF INFLAMMATORY BOWEL DISEASE” (Dompe' Farmaceutici SPA, priority 2022, published 2025)
